Reference: patent US9409915B2, “Substituted aza-bicyclic imidazole derivatives useful as TRPM8 receptor modulators” (Janssen Pharmaceutica NV, priority 2010, dated 2016)
Where a name gives a salt, the structure may show the parent alone.

Tests used:
[1] = system: Male Sprague Dawley rats; experiment: Inhibition of icilin-induced "wet-dog" shakes in rats; assay type: in vivo; settings: 10 mg/kg p.o. in 10% HP-β-CD, 60 min before icilin 3.0 mg/kg i.p.; rat wet-dog shakes
Protocol: Male Sprague Dawley rats (220-450 g, Charles River Labs, n=6-9/treatment) were used to evaluate the ability of test compounds to block icilin-induced “wet-dog” shakes (WDS). The test compound was administered in 10% hydroxypropyl-β-cyclodextrin (HP-β-CD), p.o., 60 min before icilin. Icilin was then administered in 10% solutol/H2O, at 3.0 mg/kg, i.p., and spontaneous “wet-dog” shakes were counted 10 min following the icilin injection over a 10-min period.

[2] = target: canine TRPM8 (Canis lupus familiaris, UniProt Q1A7N1); experiment: In vitro canine TRPM8 functional assay (Ca2+-sensitive fluorescent dye, icilin activation); assay type: cell-based; settings: HEK293 cells stably expressing canine TRPM8, icilin-induced Ca2+ response; for IC50: eight-point concentration-response
canine TRPM8, sequence (Q1A7N1 1-1104): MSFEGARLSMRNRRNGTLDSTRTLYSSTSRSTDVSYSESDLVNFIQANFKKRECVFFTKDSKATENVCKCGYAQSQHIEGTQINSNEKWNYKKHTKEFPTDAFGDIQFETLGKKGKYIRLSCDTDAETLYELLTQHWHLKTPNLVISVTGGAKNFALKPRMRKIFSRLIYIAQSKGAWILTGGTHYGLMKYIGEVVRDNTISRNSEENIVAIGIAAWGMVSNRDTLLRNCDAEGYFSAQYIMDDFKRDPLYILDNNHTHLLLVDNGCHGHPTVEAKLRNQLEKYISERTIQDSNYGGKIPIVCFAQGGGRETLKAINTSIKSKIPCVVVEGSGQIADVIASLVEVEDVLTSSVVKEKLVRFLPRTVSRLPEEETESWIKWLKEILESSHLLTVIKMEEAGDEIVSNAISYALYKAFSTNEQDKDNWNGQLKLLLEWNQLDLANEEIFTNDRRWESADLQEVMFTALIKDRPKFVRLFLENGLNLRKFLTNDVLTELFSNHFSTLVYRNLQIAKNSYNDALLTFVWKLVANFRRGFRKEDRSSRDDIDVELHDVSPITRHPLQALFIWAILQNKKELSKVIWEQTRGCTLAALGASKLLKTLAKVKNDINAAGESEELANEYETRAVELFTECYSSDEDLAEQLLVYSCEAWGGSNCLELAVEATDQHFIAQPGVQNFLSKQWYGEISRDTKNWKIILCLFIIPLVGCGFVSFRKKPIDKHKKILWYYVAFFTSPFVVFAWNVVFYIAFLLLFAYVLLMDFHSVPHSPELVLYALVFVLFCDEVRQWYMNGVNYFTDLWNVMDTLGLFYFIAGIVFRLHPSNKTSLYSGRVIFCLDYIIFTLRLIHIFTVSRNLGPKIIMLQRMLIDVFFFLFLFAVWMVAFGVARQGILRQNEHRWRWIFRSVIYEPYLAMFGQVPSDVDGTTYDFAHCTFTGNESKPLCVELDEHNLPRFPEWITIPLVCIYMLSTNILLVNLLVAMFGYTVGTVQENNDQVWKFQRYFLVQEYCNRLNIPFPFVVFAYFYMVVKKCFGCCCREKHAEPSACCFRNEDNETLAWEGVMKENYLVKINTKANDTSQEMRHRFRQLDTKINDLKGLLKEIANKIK

Compound	Icilin % Inhibition @ 1.5 h, 10 mg/kg [1]	inhibition at 0.2 µM ([2]; 0.2 μM compound)	IC50 [2]	% Inh @ 0.2 μM ([2]; 0.2 μM compound)
COc1nc(-c2ccccc2Cl)cc2nc(-c3c(C#N)c(C(C)(C)C)nn3C)[nH]c12.CS(=O)(=O)O [Compound 17, 3-tert-Butyl-5-[6-(2-chloro-phenyl)-4-methoxy-3H-imidazo[4,5-c]pyridine-2-yl]-1-methyl-1H-pyrazole-4-carbonitrile methanesulfonic acid salt]	38%	99%	1.7 nM	
CC(C)Oc1nc(-c2ccccc2F)cc2nc(-c3c(Cl)c(C(C)(C)C)nn3C)[nH]c12 [Compound 92, 2-(5-tert-Butyl-4-chloro-2-methyl-2H-pyrazol-3-yl)-6-(2-fluorophenyl)-4-isopropoxy-3H-imidazo[4,5-c]pyridine sodium salt]		99%	2.8 nM	
CC(C)Oc1nc(-c2ccccc2OC(F)(F)F)cc2nc(-c3c(Cl)c(C(C)(C)C)nn3C)[nH]c12 [Compound 93, 2-(5-tert-Butyl-4-chloro-2-methyl-2H-pyrazol-3-yl)-4-isopropoxy-6-(2-trifluoromethoxyphenyl)-3H-imidazo[4,5-c]pyridine sodium salt]		99%	1.2 nM	
Cn1nc(C(C)(C)C)c(Cl)c1-c1nc2nc(-c3ccccc3OC(F)(F)F)cnc2[nH]1 [Compound 94, 2-(5-tert-Butyl-4-chloro-2-methyl-2H-pyrazol-3-yl)-5-(2-trifluoromethoxy-phenyl)-1H-imidazo[4,5-b]pyrazine]		99%	22.5 nM	
Cn1nc(C(C)(C)C)c(Cl)c1-c1nc2nc(-c3ccccc3C(F)(F)F)cnc2[nH]1 [Compound 95, 2-(5-tert-butyl-4-chloro-2-methyl-2H-pyrazol-3-yl)-6-(2-trifluoromethyl-phenyl)-1H-imidazo[4,5-b]pyrazine]		100%	27 nM	
COc1nc(-c2ccccc2Cl)cc2nc(-c3csc(C(C)C)c3)[nH]c12 [Compound 98, 6-(2-Chloro-phenyl)-2-(5-isopropyl-thiophen-3-yl)-4-methoxy-3H-imidazo[4,5-c]pyridine]		100%	14 nM	
COc1nc(-c2ccccc2Cl)cc2nc(-c3cnn(C(C)(C)C)c3C)[nH]c12 [Compound 100, 2-(1-tert-Butyl-5-methyl-1H-pyrazol-4-yl)-6-(2-chloro-phenyl)-4-methoxy-3H-imidazo[4,5-c]pyridine sodium salt]		94%	61.3 nM	
COc1nc(-c2ccccc2Cl)cc2nc(-c3cnn(C(C)(C)C)c3)[nH]c12 [Compound 102, 2-(1-tert-Butyl-1H-pyrazol-4-yl)-6-(2-chloro-phenyl)-4-methoxy-3H-imidazo[4,5-c]pyridine sodium salt]		70%	120 nM	
Cn1nc(C(C)(C)C)c(Cl)c1-c1nc2nc(-c3ccccc3Cl)cnc2[nH]1 [Compound 110]			24 nM	99%
COc1nc(-c2ccccc2Cl)cc2nc(-c3nc(C(C)(C)C)cn3C)[nH]c12 [Compound 111, 2-(4-tert-Butyl-1-methyl-1H-imidazol-2-yl)-6-(2-chloro-phenyl)-4-methoxy-3H-imidazo[4,5-c]pyridine]		62%		
COCCOc1cc(-c2ccccc2C(F)(F)F)nc2nc(-c3cc(C(C)(C)C)nn3C)[nH]c12 [Compound 112, 2-(5-tert-Butyl-2-methyl-2H-pyrazol-3-yl)-7-(2-methoxy-ethoxy)-5-(2-trifluoromethyl-phenyl)-1H-imidazo[4,5-b]pyridine methanesulfonic acid salt]		98%	19 nM	
Cn1nc(C(C)(C)C)c(Cl)c1-c1nc2nc(-c3ccccc3C(F)(F)F)cc(Cl)c2[nH]1 [compound 5, hydrochloride]		99%		
Cn1nc(C(C)(C)C)c(Cl)c1-c1nc2cc(-c3ccccc3C(F)(F)F)nc(C#N)c2[nH]1 [compound 60, 2-(5-tert-butyl-4-chloro-2-methyl-2H-pyrazol-3-yl)-6-(2-trifluoromethyl-phenyl)-3H-imidazo[4,5-c]pyridine-4-carbonitrile benzenesulfonic acid salt]		99%		
